Test results from patent US6117859A, “Method of relieving chronic inflammation by using 5-alkylsulfonylsalicylanilides” (The Research Foundation of State University of New York, priority 1999, dated 2000).

How the values were obtained:
[1] = Solubility of representative compounds in various solvent systems; assay type: physicochemical
Procedure: The solubility of representative compounds of this invention in various solvent systems was determined. The solvents included ethanol, propylene glycol, SLS, Tween 80™ and combinations thereof.

[2] = Single dose oral tolerance in rats; assay type: in vivo, rat (male weaning Sprague-Dawley); conditions: single dose 2.5 or 0.75 g/kg in 5% CMC, 7 days
Procedure: To test for tolerance of the administered compounds, male weaning Sprague-Dawley rats were fed in a single dose of 2.5 or 0.75 g/kg of TMF-12, TMF-10, TMC-10 or TPC-10 in 5% carboxymethyl cellulose (CMC) or CMC alone. […] At completion of the 7 day observation period, necropsies were performed on all animals.

[3] = test system: ear weight gain produced by multiple doses of TPA in mice; assay: Chronic (multiple dose) TPA mouse ear inflammation assay, ear weight gain; assay type: in vivo, mouse (female CD-1); conditions: for % Inhibition of Ear Weight Gain, Relative to Hydrocortisone (HCV) = 100%: head prints 1.25 eg/ear; for Decrease in weight relative to TPA treated biopsies: 20 μg HCV/ear
Procedure: The acute skin inflammation model described in Example 1, tests the ability of a compound to prevent inflammation and thus must be applied prophylactically. Most clinical situations, however, are present as chronic inflammatory conditions. […] The effects of the compounds of the present invention and Salifluor on chronically inflamed skin was measured in the mouse ear model that utilizes multiple TPA doses over a 10-day period to produce the inflammatory response.
The assay used female CD-1 mice (7-9 weeks of age). Following a 2-week quarantine, mice were randomly assigned to test groups (5 mice/groups). TPA (10 uL of 0.01 TPA in acetone) was administered to both the inner and outer surface of each ear (2μg/ear) on day 0,2,4,7, and 9 on protocol. On Day 7,8 and 9, two applications of test article were applied to each ear 2 and 4 hours after dosing with TPA. The test articles were administered in 10 uL aliquots to both the inner and outer surface of each ear (20 μl total/dose). […] Hydrocortisone-17-valerate (HCV, 20μg/ear) was employed as a positive control. Mice were sacrificed at Day 10 on protocol and uniform punch biopsies (approximately 8 mm dia.) were taken from each ear. While on protocol, dermal irritation was scored semiquantitatively at Day 1,3,5,8, and 10.
(§1) Inhibition of TPA stimulated increased ear weight was used as an initial measure of efficacy for all of the agents tested. One biopsy from each mouse was also quick frozen and stored at -70° C. for later assay of myleoperoxidase, an enzyme associated with infiltrating PMN, or other measure of efficacy. The remaining biopsy from each mouse treated with Trifluorosal or HCV was fixed in formalin and processed for histopathologic evaluation, including measurement of cellular infiltration (PMNs, endothelial cells, macrophages) and epidermal thickness at 20 random sites along the length of the specimen.
Initially, a dose-response curve for multiple doses of TPA to produce mouse ear weight gain was generated in order to determine the concentration of TPA to be employed in the inhibition studies. […] Another major difference between the multiple TPA dose (or chronic assay for inflammation) and the single TPA dose (or acute assay for inflammation) in the mouse ear is sensitivity to Non-steroidal antiinflammatory drugs (NSAIDs) and antihistamines.

[4] = test system: ear weight gain produced by multiple doses of TPA in mice; conditions: cited from earlier work
[5] = test system: TPA treated mouse ear skin; assay: Histopathology of ear biopsies after multiple doses of TPA (epidermal thickness, dermal cellularity); assay type: in vivo, mouse (female CD-1)
Procedure: The assay used female CD-1 mice (7-9 weeks of age). Following a 2-week quarantine, mice were randomly assigned to test groups (5 mice/groups). TPA (10 uL of 0.01 TPA in acetone) was administered to both the inner and outer surface of each ear (2μg/ear) on day 0,2,4,7, and 9 on protocol. On Day 7,8 and 9, two applications of test article were applied to each ear 2 and 4 hours after dosing with TPA. The test articles were administered in 10 uL aliquots to both the inner and outer surface of each ear (20 μl total/dose). The candidate drugs were tested at several different concentrations (e.g., 5, 1.25, and 0.125 mg/ear) to determine a maximum effective dose within a range that could be effectively applied. Hydrocortisone-17-valerate (HCV, 20μg/ear) was employed as a positive control. Mice were sacrificed at Day 10 on protocol and uniform punch biopsies (approximately 8 mm dia.) were taken from each ear. While on protocol, dermal irritation was scored semiquantitatively at Day 1,3,5,8, and 10.
as §1
In order to confirm the subjective observations, quantitative determinations of 3 parameters (epidermal thickness, dermal thickness, and dermal cellularity) in the skin of negative controls (acetone), positive controls (TPA), and TPA treated skin treated with 3 doses of test article (Trifluorosal) and hydrocortisone were carried out. Epidermal thickness reflects the reactive proliferative activity induced by TPA in the […]: dermal thickness reflects primarily Ad edema but may also be affected by other phenomena, such as formation of granulation tissue, collagen synthesis, the activity of myofibroblasts, etc. Cellularity of the dermis is frequently used as a surrogate marker of inflammatory changes in the dermis.
Determination of the epidermal thickness was performed under the microscope with a calibrated scale placed in the eyepiece. Ten determinations were carried out in the epidermis covering the outside of the ear using a 40× objective and a 10× eyepiece (400× total). The measurements were taken from the basal side of the basal layer (basement membrane) to the outer side of the last nucleated cell of the […]. The average of the 10 measurements expressed in microns was entered in the table.
Determination of dermal thickness was performed using a similar technique. To avoid variability caused by the difference in sizes between the base and tip of the ear, only 3 measurements were performed in the center of the sample. The measurements were performed from the basement membrane of the external and internal epithelial and therefore include, in addition to both dermis (external and internal), the cartilage.
Cellularity of the dermis was calculated by projecting a calibrated grid into the dermis and counting cells in the known area of the dermis. Areas of hair follicles or sebaceous glands were avoided. Five fields were counted and the results were adjusted to the number of cells in 1,000 square microns.
The results of individual animals were entered in the table and the averages and standard deviation were calculated using an EXCEL database. In addition, the results were also expressed as a percentage of the control (acetone treated). Furthermore, the percentage of inhibition of the test articles were calculated using the following formula: [formula]

[6] = test system: TPA induced mouse ear edema; assay: Acute TPA mouse ear inflammation assay, edema (ear weight); assay type: in vivo
Excerpt: The anti-inflammatory effect of selected compounds of this invention were compared to those of Triclosan™ and hydrocortisone in a modified […] (TPA) mouse ear inflammation assay. TPA was used as an inflammogen rather than croton oil because TPA gives a well characterized inflammatory response at very low concentrations. […] This model can therefore be used to study the pharmacokinetics, clinical efficacy and adverse side effects of anti-inflammatory agents. To quantitate inflammation, ear punches from treated animals were used to measure increased ear mass (edema) and myeloperoxidase (MPO) activity. For the inhibition studies, ear biopsies were weighed six hours after treatment with TPA and the simultaneous application of the compound of the present invention. All the compounds were diluted in acetone. Following this, the biopsies were frozen and subsequently used to measure inhibition of MPO activity, an estimate of polymorphonuclear (PMN) […] activity in the affected area. Percent inhibition of edema was calculated as [c-t]/c x 100, where c and t are increases in ear weight in control and treated mice, respectively.
Initially a dose-response curve for TPA-induced mouse ear edema was generated in order to determine the concentration of TPA to be employed in the inhibition studies. TPA produced a theoretical dose-response curve for edema with an ED50 of 80 ng/ear and an ED90 of 200 ng/ear in two separate experiments. ED50 is the dose at which 50% of the maximum effect was observed while ED90 is the dose at which 90% of the maximum effect was observed. […] The ED50 values for the compounds tested are as follows: […]

[7] = test system: TPA induced mouse ear edema; conditions: cited from earlier work
[8] = in vivo; cited from earlier work
[9] = aqueous buffer, pH 10 K-buffer @ 35° C.
[10] = aqueous buffer, pH 10 Na-buffer @ 22° C.
[11] = organic solvent or mixture, Ethanol @ 19° C.
[12] = organic solvent or mixture, Propylene Glycol @ 20° C.
[13] = ph 10 na-buffer +0.5% sls, pH 10 Na-buffer @ 22° C. +0.5% SLS
[14] = inflammogen dose-response, two separate experiments, 6 hours

## CCCCCCCCCCS(=O)(=O)c1ccc(O)c(C(=O)Nc2ccc(C#N)cc2)c1 [TPC-10]
[1]; +1% sls
  solubility: 690 µg/mL
[1]; +2% sls
  solubility: 910 µg/mL
[1]; +4% sls
  solubility: 1810 µg/mL
[1]; [9]
  solubility: 3.45 µg/mL
[1]; [10]
  solubility: 9.16 µg/mL
[1]; [11]
  solubility: 11500 µg/mL
[1]; [12]
  solubility: 810 µg/mL
[1]; [13]
  solubility: 300 µg/mL
[2]
  Illness or deaths: No illness or deaths occurred
[3]; multiple doses of TPA
  % Inhibition of Ear Weight Gain, Actual: 0%
  % Inhibition of Ear Weight Gain, Relative to Hydrocortisone (HCV) = 100%: 0%

## CN1C(C(=O)Nc2ccccn2)=C(O)c2ccccc2S1(=O)=O [piroxicam]
[4]
  Sensitivity of chronic TPA assay to NSAIDs: insensitive

## CCCCCCCCS(=O)(=O)c1ccc(O)c(C(=O)Nc2cccc(C(F)(F)F)c2)c1 [TMF-8]
[3]; multiple doses of TPA
  % Inhibition of Ear Weight Gain, Actual: 0%
  % Inhibition of Ear Weight Gain, Relative to Hydrocortisone (HCV) = 100%: 0%

## CCCCCCCCCCCCCC(=O)O[C@@H]1[C@@H](C)[C@@]2(O)[C@@H](C=C(CO)C[C@]3(O)C(=O)C(C)=C[C@@H]23)[C@@H]2C(C)(C)[C@]12OC(C)=O [TPA, 12-tetradecanoyl 13-phorbol acetate, reference compound]
[5]; multiple doses of TPA
  Histopathological change produced by multiple doses of TPA: dramatic hyperplasia of the epidermis as well as inflammatory changes in the dermis
[3]; multiple doses of TPA
  Dose of TPA producing maximal ear weight gain: 2 μg/ear
  Dose of TPA with marginal effects on ear weight gain: below 1 μg/ear
[6]; [14]
  ED50 for TPA-induced ear edema: 80 ng/ear
  ED90 for TPA-induced ear edema: 200 ng/ear

## C[C@]12CCC(=O)C=C1CC[C@@H]1[C@@H]2[C@@H](O)C[C@@]2(C)[C@H]1CC[C@]2(O)C(=O)CO [Hydrocortisone, reference compound]
[5]; 0.02 mg/ear
  % Inhibition, Dermal Cellularity: 78.6%
  % Inhibition, Epidermal Thickness: 58.6%
[5]; histopathology
  Blood vessel prominence (in words): Blood vessels were not as prominent
[5]; histopathology, FIG. 1
  Cellularity of the dermis (in words): reduced the epidermal thickness as well as the cellularity of the dermis
  Epidermal thickness (in words): reduced the epidermal thickness
[6]; acute assay
  Relative anti-inflammatory potency (in words): the most potent anti-inflammatory agent tested

## CCCCC(=O)O[C@]1(C(=O)CO)CC[C@H]2[C@@H]3CCC4=CC(=O)CC[C@]4(C)[C@H]3[C@@H](O)C[C@@]21C [Hydrocortisone 17-valerate, Hydrocortisone-17-valerate, reference compound]
[3]; Assay #1
  Decrease in weight relative to TPA treated biopsies: 71%
[3]; Assay #2
  Decrease in weight relative to TPA treated biopsies: 107%
[3]; 20μg/ear, first experiment
  Inhibition of ear weight gain: 86%

## COc1ccc2cc([C@H](C)C(=O)O)ccc2c1 [Naproxen]
[7]
  Inhibition of acute TPA assay by NSAIDs: inhibited

## Oc1cc(Cl)ccc1Oc1ccc(Cl)cc1Cl [Triclosan, 2',4,4'-trichloro-2-hydroxy-diphenyl-ether]
[8]
  Anti-inflammatory activity in clinical trials: have been reported to have anti-inflammatory activity in clinical trials

## CCCCCCCCCCS(=O)(=O)c1ccc(O)c(C(=O)Nc2cccc(C#N)c2)c1 [TMC-10]
[1]; +0.5% tween 80
  solubility: 770 µg/mL
[1]; +1% sls
  solubility: 4270 µg/mL
[1]; +1.5% tween 80
  solubility: 2240 µg/mL
[1]; +2% SLS + 0.5% Tween 80
  solubility: 3980 µg/mL
[1]; +2% SLS + 1.0% Tween 80
  solubility: 4740 µg/mL
[1]; +2% SLS + 2.0% Tween 80
  solubility: 5050 µg/mL
[1]; +2% sls
  solubility: 6680 µg/mL
[1]; +3.0% tween 80
  solubility: 4690 µg/mL
[1]; +4% sls
  solubility: 7900 µg/mL
[1]; [9]
  solubility: 5.58 µg/mL
[1]; [10]
  solubility: 7.2 µg/mL
[1]; [11]
  solubility: 36700 µg/mL
[1]; [12]
  solubility: 1940 µg/mL
[1]; [13]
  solubility: 3130 µg/mL
[2]
  Illness or deaths: No illness or deaths occurred
[3]; multiple doses of TPA
  % Inhibition of Ear Weight Gain, Actual: 0%
  % Inhibition of Ear Weight Gain, Relative to Hydrocortisone (HCV) = 100%: 0%

## O=C(O)Cc1ccccc1Nc1c(Cl)cccc1Cl [diclofenac]
[4]
  Sensitivity of chronic TPA assay to NSAIDs: insensitive

## CC(C)Cc1ccc(C(C)C(=O)O)cc1 (stereo not shown) [Ibuprofen]
[7]
  Inhibition of acute TPA assay by NSAIDs: inhibited
